Like-named read-outs stand apart in the source and are kept apart here.
Key:
[1] = MT-4 cytotoxicity assay; assay type: cell-based, human; conditions: human
[2] = test system: HBV-infected NTCP-HepG2 cells, secreted HBsAg; test: microbe, parasite or virus in culture; assay type: cell-based, hepatitis B virus (genotype D, AD38-derived); conditions: Hepatitis B virus, 120 h, secreted HBsAg in supernatant after 5 days; geometric mean of minimum four determinations; read-out: NTCP HBsAg EC50
Method in brief: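 NTCP-HepG2 cells were infected with genotype D HBV at 4000 genome equivalents/cell, then seeded 4 days post-infection with serially diluted compounds (1% DMSO) for 5 days. Supernatant HBsAg was measured by chemiluminescent MSD immunoassay. EC50 from four-parameter fit, geometric mean of ≥4 determinations.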

[3] = five days, Cell Titer Glo luminescence, read-out: MT-4 CC50

SMILES: COCCCOc1cc2c(cc1OC(F)(F)F)-c1cc(=O)c(C(=O)O)cn1N1[C@@H]2CCC1(C)C [Example 79, (R)-12-(3-methoxypropoxy)-3,3-dimethyl-8-oxo-11-(trifluoromethoxy)-2,3,8,13b-tetrahydro-1H-pyrido[2,1-a]pyrrolo[1,2-c]phthalazine-7-carboxylic acid]
- CC50 at 5 days [1, 3]: > 10 µM
- EC50 [2]: 0.0011 µM

SMILES: COCCCOc1cc2c(cc1Cl)-c1cc(=O)c(C(=O)O)cn1N1[C@@H]2CCC1(COC)COC [Example 80, (R)-11-chloro-3,3-bis(methoxymethyl)-12-(3-methoxypropoxy)-8-oxo-2,3,8,13b-tetrahydro-1H-pyrido[2,1-a]pyrrolo[1,2-c]phthalazine-7-carboxylic acid]
- CC50 at 5 days [1, 3]: > 10 µM
- EC50 [2]: 0.045 µM

SMILES: COCCCOc1cc2c(cc1Cl)-c1cc(=O)c(C(=O)O)cn1N1[C@@H]2CCC12COC(C)(C)OC2 [Example 81, (R)-11-chloro-12-(3-methoxypropoxy)-2′,2′-dimethyl-8-oxo-1,2,8,13b-tetrahydrospiro[pyrido[2,1-a]pyrrolo[1,2-c]phthalazine-3,5′-[1,3]dioxane]-7-carboxylic acid]
- CC50 at 5 days [1, 3]: > 10 µM
- EC50 [2]: 0.386 µM

SMILES: COCCCOc1cc2c(cc1Cl)-c1cc(=O)c(C(=O)O)cn1N1[C@@H]2CCC12COC2 [Example 82, (R)-11′-chloro-12′-(3-methoxypropoxy)-8′-oxo-1′,2′,8′,13b′-tetrahydrospiro[oxetane-3,3′-pyrido[2,1-a]pyrrolo[1,2-c]phthalazine]-7′-carboxylic acid]
- CC50 at 5 days ([1]; MT-4 CC50): > 10 µM
- EC50 [2]: 0.072 µM

SMILES: COc1cc2c(cc1C#CC(C)(C)S(C)(=O)=O)[C@H]1CCC(C)(C)N1n1cc(C(=O)O)c(=O)cc1-2 [Example 83, (R)-11-methoxy-3,3-dimethyl-12-(3-methyl-3-(methylsulfonyl)but-1-yn-1-yl)-8-oxo-2,3,8,13b-tetrahydro-1H-pyrido[2,1-a]pyrrolo[1,2-c]phthalazine-7-carboxylic acid]
- CC50 at 5 days [1, 3]: > 10 µM
- EC50 [2]: 0.0096 µM

SMILES: COc1cc2c(cc1C#CC(C)(C)S(=O)(=O)C1CC1)[C@H]1CCC(C)(C)N1n1cc(C(=O)O)c(=O)cc1-2 [Example 84, (R)-12-(3-(cyclopropylsulfonyl)-3-methylbut-1-yn-1-yl)-11-methoxy-3,3-dimethyl-8-oxo-2,3,8,13b-tetrahydro-1H-pyrido[2,1-a]pyrrolo[1,2-c]phthalazine-7-carboxylic acid]
- CC50 at 5 days [1, 3]: > 10 µM
- EC50 [2]: 0.0112 µM

SMILES: COC(C)(C)C#Cc1cc2c(cc1Cl)-c1cc(=O)c(C(=O)O)cn1N1[C@@H]2CCC12CC2 [Example 85, (R)-11′-chloro-12′-(3-methoxy-3-methylbut-1-yn-1-yl)-8′-oxo-1′,2′,8′,13b′-tetrahydrospiro[cyclopropane-1,3′-pyrido[2,1-a]pyrrolo[1,2-c]phthalazine]-7′-carboxylic acid]
- CC50 at 5 days ([1]; MT-4 CC50): > 10 µM
- EC50 [2]: 0.0041 µM

SMILES: O=C(O)c1cn2c(cc1=O)-c1cc(Cl)c(-c3cnn(C4COC4)c3)cc1[C@H]1CCC3(CC3)N12 [Example 86, (R)-11′-chloro-12′-(1-(oxetan-3-yl)-1H-pyrazol-4-yl)-8′-oxo-1′,2′,8′,13b′-tetrahydrospiro[cyclopropane-1,3′-pyrido[2,1-a]pyrrolo[1,2-c]phthalazine]-7′-carboxylic acid]
- CC50 at 5 days ([1]; MT-4 CC50): > 10 µM
- EC50 [2]: 0.0248 µM

SMILES: COCCCOc1cc2c(cc1COC)-c1cc(=O)c(C(=O)O)cn1N1[C@@H]2CCC12CC2 [Example 87, (R)-11′-(methoxymethyl)-12′-(3-methoxypropoxy)-8′-oxo-1′,2′,8′,13b′-tetrahydrospiro[cyclopropane-1,3′-pyrido[2,1-a]pyrrolo[1,2-c]phthalazine]-7′-carboxylic acid]
- CC50 at 5 days ([1]; MT-4 CC50): > 10 µM
- EC50 [2]: 0.0042 µM

SMILES: COCc1cc2c(cc1OCCCOC(=O)NC1(C(F)F)CC1)[C@H]1CCC(C)(C)N1n1cc(C(=O)O)c(=O)cc1-2 [Example 88, (R)-12-(3-(((1-(Difluoromethyl)cyclopropyl)carbamoyl)oxy)propoxy)-11-(methoxymethyl)-3,3-dimethyl-8-oxo-2,3,8,13b-tetrahydro-H-pyrido[2,1-a]pyrrolo[1,2-c]phthalazine-7-carboxylic acid]
- CC50 at 5 days [1, 3]: > 10 µM
- EC50 [2]: 0.0054 µM

SMILES: CC1(C)CC[C@@H]2c3cc(C#CC(C)(C)S(C)(=O)=O)c(OC(F)(F)F)cc3-c3cc(=O)c(C(=O)O)cn3N21 [Example 89, (R)-3,3-dimethyl-12-(3-methyl-3-(methylsulfonyl)but-1-yn-1-yl)-8-oxo-11-(trifluoromethoxy)-2,3,8,13b-tetrahydro-1H-pyrido[2,1-a]pyrrolo[1,2-c]phthalazine-7-carboxylic acid]
- CC50 at 5 days [1, 3]: > 10 µM
- EC50 [2]: 0.0137 µM

SMILES: COC(C)(C)C#Cc1cc2c(cc1OC(F)(F)F)-c1cc(=O)c(C(=O)O)cn1N1[C@@H]2CCC1(C)C [Example 90, (R)-12-(3-methoxy-3-methylbut-1-yn-1-yl)-3,3-dimethyl-8-oxo-11-(trifluoromethoxy)-2,3,8,13b-tetrahydro-1H-pyrido[2,1-a]pyrrolo[1,2-c]phthalazine-7-carboxylic acid]
- CC50 at 5 days [1, 3]: > 10 µM
- EC50 [2]: 0.005 µM

SMILES: CC1(C)CC[C@@H]2c3cc(OCCn4nc5ccccn5c4=O)c(OC(F)(F)F)cc3-c3cc(=O)c(C(=O)O)cn3N21 [Example 91, (R)-3,3-dimethyl-8-oxo-12-(2-(3-oxo-[1,2,4]triazolo[4,3-a]pyridin-2(3H)-yl)ethoxy)-11-(trifluoromethoxy)-2,3,8,13b-tetrahydro-H-pyrido[2,1-a]pyrrolo[1,2-c]phthalazine-7-carboxylic acid]
- CC50 at 5 days [1, 3]: > 10 µM
- EC50 [2]: 0.003 µM

SMILES: CC1(C)CC[C@@H]2c3cc(OCC45CC(C#N)(C4)C5)c(OC(F)(F)F)cc3-c3cc(=O)c(C(=O)O)cn3N21 [Example 92, (R)-12-((3-cyanobicyclo[1.1.1]pentan-1-yl)methoxy)-3,3-dimethyl-8-oxo-11-(trifluoromethoxy)-2,3,8,13b-tetrahydro-1H-pyrido[2,1-a]pyrrolo[1,2-c]phthalazine-7-carboxylic acid]
- CC50 at 5 days [1, 3]: 8.1 µM
- EC50 [2]: 0.003 µM

SMILES: CC1(C)CC[C@@H]2c3cc(-c4cnn(C5COC5)c4)c(OC(F)(F)F)cc3-c3cc(=O)c(C(=O)O)cn3N21 [Example 93, (R)-3,3-dimethyl-12-(1-(oxetan-3-yl)-1H-pyrazol-4-yl)-8-oxo-11-(trifluoromethoxy)-2,3,8,13b-tetrahydro-1H-pyrido[2,1-a]pyrrolo[1,2-c]phthalazine-7-carboxylic acid]
- CC50 at 5 days [1, 3]: > 10 µM
- EC50 [2]: 0.0044 µM

SMILES: COCc1cc2c(cc1OCCCOC1COC1)[C@H]1CCC(C)(C)N1n1cc(C(=O)O)c(=O)cc1-2 [Example 94, (R)-11-(methoxymethyl)-3,3-dimethyl-12-(3-(oxetan-3-yloxy)propoxy)-8-oxo-2,3,8,13b-tetrahydro-1H-pyrido[2,1-a]pyrrolo[1,2-c]phthalazine-7-carboxylic acid]
- CC50 at 5 days [1, 3]: > 10 µM
- EC50 [2]: 0.006 µM

SMILES: COCc1cc2c(cc1OCCn1nc3ccccn3c1=O)[C@H]1CCC(C)(C)N1n1cc(C(=O)O)c(=O)cc1-2 [Example 95, (R)-11-(methoxymethyl)-3,3-dimethyl-8-oxo-12-(2-(3-oxo-[1,2,4]triazolo[4,3-a]pyridin-2(3H)-yl)ethoxy)-2,3,8,13b-tetrahydro-1H-pyrido[2,1-a]pyrrolo[1,2-c]phthalazine-7-carboxylic acid]
- CC50 at 5 days [1, 3]: > 10 µM
- EC50 [2]: 0.0046 µM

SMILES: CC1(C)CC[C@@H]2c3cc(OCCn4nc5ccccn5c4=O)c(C4CC4)cc3-c3cc(=O)c(C(=O)O)cn3N21 [Example 96, (R)-11-cyclopropyl-3,3-dimethyl-8-oxo-12-(2-(3-oxo-[1,2,4]triazolo[4,3-a]pyridin-2(3H)-yl)ethoxy)-2,3,8,13b-tetrahydro-1H-pyrido[2,1-a]pyrrolo[1,2-c]phthalazine-7-carboxylic acid]
- CC50 at 5 days [1, 3]: > 10 µM
- EC50 [2]: 0.00017 µM

SMILES: COCc1cc2c(cc1C#CC(C)(C)OC)[C@H]1CCC(C)(C)N1n1cc(C(=O)O)c(=O)cc1-2 [Example 97, (R)-12-(3-methoxy-3-methylbut-1-yn-1-yl)-11-(methoxymethyl)-3,3-dimethyl-8-oxo-2,3,8,13b-tetrahydro-1H-pyrido[2,1-a]pyrrolo[1,2-c]phthalazine-7-carboxylic acid]
- CC50 at 5 days [1, 3]: > 10 µM
- EC50 [2]: 0.0086 µM

SMILES: CC1(C)CC[C@@H]2c3cc(OCCCOC4COC4)c(Cl)cc3-c3cc(=O)c(C(=O)O)cn3N21 [Example 98, (R)-11-chloro-3,3-dimethyl-12-(3-(oxetan-3-yloxy)propoxy)-8-oxo-2,3,8,13b-tetrahydro-1H-pyrido[2,1-a]pyrrolo[1,2-c]phthalazine-7-carboxylic acid]
- CC50 at 5 days [1, 3]: > 10 µM
- EC50 [2]: 0.0022 µM

SMILES: CC1(C)CC[C@@H]2c3cc(OCC45CC(C#N)(C4)C5)c(C4CC4)cc3-c3cc(=O)c(C(=O)O)cn3N21 [Example 99, (R)-12-((3-cyanobicyclo[1.1.1]pentan-1-yl)methoxy)-11-cyclopropyl-3,3-dimethyl-8-oxo-2,3,8,13b-tetrahydro-1H-pyrido[2,1-a]pyrrolo[1,2-c]phthalazine-7-carboxylic acid]
- CC50 at 5 days [1, 3]: 3.6 µM
- EC50 [2]: 0.00066 µM

SMILES: CCc1cc2c(cc1OCC13CC(C#N)(C1)C3)[C@H]1CCC(C)(C)N1n1cc(C(=O)O)c(=O)cc1-2 [Example 100, (R)-12-((3-cyanobicyclo[1.1.1]pentan-1-yl)methoxy)-11-ethyl-3,3-dimethyl-8-oxo-2,3,8,13b-tetrahydro-1H-pyrido[2,1-a]pyrrolo[1,2-c]phthalazine-7-carboxylic acid]
- CC50 at 5 days [1, 3]: 3.9 µM
- EC50 [2]: 0.00048 µM

SMILES: COCCCOc1cc2c(cc1C1CC1)-c1cc(=O)c(C(=O)O)cn1N1[C@@H]2COCC1(C)C [Example 101, (S)-12-cyclopropyl-13-(3-methoxypropoxy)-4,4-dimethyl-9-oxo-3,4,9,14b-tetrahydro-1H-[1,4]oxazino[3,4-a]pyrido[1,2-c]phthalazine-8-carboxylic acid]
- CC50 at 5 days [1, 3]: 8.2 µM
- EC50 [2]: 0.0007 µM

— patent US10442804B2, “Compounds for the treatment of hepatitis B virus infection” (Gilead Sciences, Inc., priority 2017, dated 2019)
